# Measured values published in patent publication US20260076893A1, “SELF-FOAMING CLEANSING COMPOSITION” (Conopco, Inc., d/b/a UNILEVER, priority 2022, published 2026).
# Key:
# [1] = DPPH scavenging method (antioxidation); assay type: biochemical; settings: 0.25%, positive control, dilution not given
# From the text: To add antioxidation properties to the self-foaming cleansing composition, tocopherol (Vitamin E) can be added. Antioxidation can be measured using a DPPH scavenging method where DPPH (1,1-Diphenyl-2-picrylhydrazyl) is a stable free radical. On accepting hydrogen from a corresponding donor, its solutions lose a characteristic deep purple color and antiradical activity of tested formulations can be expressed as a percentage decrease of DPPH concentration. […] Accordingly, in a further aspect, the invention relates to the use of tocopherol in a composition according to the invention to provide anti-oxidant activity to the cleansing composition, preferably dose-dependent anti-oxidant activity. The invention relates further to the use of tocopherol to reduce free radicals in a cleansing composition according to the invention, preferably dose-dependent anti-oxidant activity. In a further embodiment, it may be preferred that the cleansing composition of the invention comprises tocopherol and moringa seed oil.
# The antioxidant activity of the formulations in Samples 4 and 5 were tested using the DPPH scavenging method (1,1-Diphenyl-2-picrylhydrazyl). DPPH is a stable free radical. […] The antiradical activity of Samples 4 and 5 was expressed as a percentage decrease of DPPH concentration.
# IL-1a = assay: Living skin equivalent assay, IL-1a; assay type: cell-based; settings: living skin equivalent after application of test solution
# Experimental: (§1) In the following samples, compositions were made with varying levels of moringa seed oil and tested in a living skin equivalent assay. The base composition was tested with levels of 0.1% by weight, 0.2% by weight, and 0.3% by weight of moringa seed oil, based on the total weight of the self-foaming cleansing composition. The living skin equivalent assay study monitored gene expression of several markers after application of the test solutions to the living skin equivalent assay.
# (§2) Comparative Example 1 was a non-treated control meaning no application on the skin model. Comparative Example 2 was another control where phosphate-buffered saline (PBS) was applied topically to the skin model.
# CASP14 = assay: Living skin equivalent assay, CASP14 gene expression; assay type: cell-based
# Experimental: as §1, §2
# AQP3 = assay: Living skin equivalent assay, AQP3 gene expression; assay type: cell-based
# Experimental: as §1, §2
Compound,% Reduction over DPPH reagent control [1] [%],IL-1a (IL-1a) [pg/mL],CASP14 (Fold change) (CASP14),AQP3 (Fold change) (AQP3)
O=C1O[C@H]([C@@H](O)CO)C(O)=C1O [Vitamin C],95.04,–,–,–
squalene monoperoxide [SQOOH],–,483.84 ± 11.42,0.54 ± 0.31,0.27 ± 0.04
